Source: US6046231A, “Use of 4'-bromoflavone in a cancer chemopreventative composition and method” (The Board of Trustees of the University of Illinois, priority 1999, dated 2000)

Legend:
[1] = tested on: MCF-7 cells (B[α]P-DNA adducts); experiment: Binding of metabolically activated [3H]B[α]P to DNA of cultured MCF-7 cells; assay type: cell-based; conditions: Homo sapiens, MCF7, read-out: IC50, formation of B[α]P-DNA adducts, MCF-7
Experimental: Effect of 4'-BF on the Binding of Metabolically Activated [^3 H]B[α]P to DNA of Cultured Cells. HepG2 cells or MCF-7 cells were plated at a density of 1×10^6 cells/dish in 6 cm Petri dishes and allowed to incubate for 18 hours. Fresh media containing test samples were added to the cells 2 hours prior to the addition of 1 μM [^3 H]B[α]P (10 Ci/mmol) The test compound and tritiated carcinogen then were incubated for 6 hours. Following incubation, genomic DNA was extracted by the method described by Sharma et al., with minor modifications. Briefly, the cells were washed three times with PBS and harvested by incubation with 0.5 ml of proteinase K (100 μg/ml) in 0.2 M Tris-0.1 M EDTA (pH 8.5) for 10 min at 37° C. The cells were gently scraped from the dishes, transferred to 50 μl of 10% SDS solution, and incubated for 3 hours at 55° C. […] An aliquot of harvested DNA was used for measuring the relative absorbencies at 260 and 280 nm (A2360 nm/A2380 nm=1.7-1.9), and the DNA content was determined by absorbance at 260 nm (1 A2360 nm unit=50 μg). The remaining sample was used for the determination of radioactivity. All experiments were performed in triplicate; percentage inhibition of carcinogen-DNA binding mediated by test samples was calculated as follows: % inhibition=[1-(dpm per μg DNA test cells/dpm per μg DNA control cells)]×100.

[2] = biological target: T1, cytochrome P4501A1 (Rattus norvegicus, UniProt P00185); experiment: biochemical
T1 sequence (P00185 1-524): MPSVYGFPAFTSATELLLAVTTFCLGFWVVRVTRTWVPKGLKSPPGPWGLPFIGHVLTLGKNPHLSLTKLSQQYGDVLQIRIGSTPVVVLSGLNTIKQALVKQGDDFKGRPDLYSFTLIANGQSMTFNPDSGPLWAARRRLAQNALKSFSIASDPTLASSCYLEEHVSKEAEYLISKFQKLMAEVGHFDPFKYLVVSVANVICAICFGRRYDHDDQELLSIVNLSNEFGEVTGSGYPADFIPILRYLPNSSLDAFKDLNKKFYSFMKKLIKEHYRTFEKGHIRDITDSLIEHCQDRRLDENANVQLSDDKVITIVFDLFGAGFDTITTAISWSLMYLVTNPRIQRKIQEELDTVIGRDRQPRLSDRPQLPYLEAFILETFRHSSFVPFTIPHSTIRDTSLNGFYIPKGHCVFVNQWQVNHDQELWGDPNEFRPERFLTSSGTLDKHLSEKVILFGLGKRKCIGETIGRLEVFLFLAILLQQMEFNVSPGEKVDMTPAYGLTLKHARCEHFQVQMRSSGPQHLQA
Experimental: Inhibition of DMBA-induced Cytochrome P4501A1 Activity. Female Sprague Dawley rats (43 days of age) were treated with DMBA (i.g.), and liver microsomes were isolated through differential centrifugation. Cytochrome P4501A1 activity was monitored by assessing EROD activity. Briefly, 200 μl of microsomal protein (2 mg/ml) were added to a reaction mixture containing 640 μl of 0.05 M Tris-HCl buffer (pH 7.5), 100 μl of BSA (10 mg/ml in Tris buffer), 20 μl of 0.25 M MgCl2, 40 μl of cofactor solution (0.3282 g of NADP and 1.417 g of glucose 6-phosphate in 40 ml of 1.15% KCl), 2.5 units of glucose 6-phosphate dehydrogenase, 10 μl of substrate (1 mg of ethoxyresorufin in 10 ml of methanol) and 10 μl of various concentrations of 4'-BF in DMSO (α-naphthoflavone as positive control; DMSO as negative control). After incubating at 37° C. for 4 min, the reactions were terminated by the addition of 2 ml of methanol. Samples were then centrifuged for 20 min at 2,000×g. and 200 μl of the supernatant fractions were transferred to 96-well plates and read on a spectrofluorimeter (500 nm excitation and 585 nm emission). Assays were conducted in triplicate and the percent of inhibition was calculated as: [1-(sample A-blank)/(DMSO A-blank)]×100.

[3] = tested on: cytochrome P4501A1; experiment: Inhibition of TCDD-induced EROD activity; assay type: biochemical

Structure (SMILES): O=c1cc(-c2ccc(Br)cc2)oc2ccccc12 [4'-Bromoflavone]
- IC50 [1]: ~1700 nM
- IC50 [2]: 860 nM
- inhibition of TCDD-induced EROD activity [3]: significantly inhibit
